From patent US6011008A, “Conjugates of biologically active substances” (priority 1998, dated 2000)

Tests used:
Escherichia coli = Escherichia coli agar plates, after 24 hours of incubation
Procedure: The antimicrobial activity of the conjugates was assayed by a cup method^(9) (agar plate method) using Escherichia coli agar plates and measuring the zone of growth inhibition.

E. Coli = assay: Antimicrobial activity, filter paper on seeded agar plate; type: cell-based; conditions: 24 hours at 37° C., 6 mm filter paper, equivalent amounts of the drug
Procedure: (§1) The antimicrobial activity of these conjugates was determined as described above. Saline solutions of equivalent amounts of the drug in free form or the imine or amine AG conjugates were absorbed onto a circular filter paper (6 mm in diameter) and placed on a seeded agar plate with Staphylococcus Aureus (10^5 /ml) and E. Coli incubated for 24 hours at 37° C. […] Similar results were obtained for the Polymyxin derivatives.

Staphylococcus Aureus = assay: as above; type: cell-based; conditions: Staphylococcus Aureus (10^5 /ml), 24 hours at 37° C., 6 mm filter paper, equivalent amounts of the drug
Procedure: as §1

[1] = In vitro release (dialysis tubing method); type: physicochemical; conditions: for release of the conjugated drug: after 24 hours, buffer pH 7.4 at 37° C.; for drug released from the dialysis tube: after 5 hours, buffer pH 7.4, 37° C.
Procedure: A solution of the Schiff base or the amine conjugates (100 mg in 5 ml phosphate buffer pH7.4) was placed into a cellulose dialysis tubing of 12,000 MW cut off and the bag was placed into a 100 ml. buffer solution at 37° C. The drug release to the solution was monitored by UV absorption at 280 nm, unless otherwise indicated.
The release of DOX from the AG conjugates was determined using dialysis tubing as described above. The DOX-AG imine conjugate, the DOX-AG amine conjugate and a solution of the native drug were studied. The amount of DOX found in the solution was 2, 5, 8, 10 and 12% of the total dose after 2, 4, 7, 12 and 32 hours, respectively.
The Mitomycin release into the solution was measured as described above. The amount of drug found in the solution was 1, 2, 4, 5 and 8% of the total dose after 2, 4, 7, 12 and 32 hours, respectively.
In vitro release of Somatostatin was determined as described in the Methods and the somatostatin concentration was determined by the Folin-Lowry method for peptide analysis^(10).
Insulin was conjugated to oxidized AG (50 mg with 100 mg pure oxidized AG) using the method described above for somatostatin. The conjugation yield was about 75% as determined by nitrogen analysis and the Folin-Lowry method. The Schiff base derivative released about 25% of its drug content after 24 hours in phosphate buffer solution at […].

`CO[C@@]12[C@H](COC(N)=O)C3=C(C(=O)C(C)=C(N)C3=O)N1C[C@@H]1N[C@@H]12` [Mitomycin C] gave an inhibition zone (Escherichia coli) greater than 10 mm.

gentamicin showed an inhibition zone (E. Coli) greater than 10 mm and an inhibition zone (Staphylococcus Aureus) greater than 10 mm.

For “Somatostatin-AG amine conjugate: Somatostatin-AG Schiff base hydrogenated to the amine conjugate using NaBH4”, the “release of the conjugated drug” value [1] was “did not release any”.

In the case of “Somatostatin-AG imine conjugate: Somatostatin conjugated to pure oxidized AG via imine bond”, the “drug released from the dialysis tube” value [1] is reported as “about 5%” and the “release of the conjugated drug” value [1] is reported as roughly 18%.

In the case of `COc1cccc2c1C(=O)c1c(O)c3c(c(O)c1C2=O)C[C@@](O)(C(=O)CO)C[C@@H]3O[C@H]1C[C@H](N)[C@H](O)[C@H](C)O1` [DOX, Doxorubicin], the “drug released from the dialysis tube” value [1] is reported as 90%.

In the case of `NC[C@H]1O[C@H](O[C@H]2[C@H](O)[C@@H](O[C@H]3O[C@H](CO)[C@@H](O)[C@H](N)[C@H]3O)[C@H](N)C[C@@H]2N)[C@H](N)C[C@@H]1O` [tobramicin], the inhibition zone (E. Coli) is reported as greater than 10 mm and the inhibition zone (Staphylococcus Aureus) is reported as greater than 10 mm.

With “Insulin-AG Schiff base derivative: Insulin conjugated to pure oxidized AG, Schiff base” the “release of drug content” value ([1]; after 24 hours in phosphate buffer solution at […].) was “about 25%”.
